Experimental data taken from the supplement of paper PMC10307832.

Assays:
Test in all cases: relative viability (nuclei count vs DMSO), 5 days (fraction); higher = more cells survive
EMC-BAC-2 = system: EMC-BAC-2
How it was run: (§1)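 Lung cancer cell lines, seeded in 1536-well plates, were treated the following day by pin tool with a single drug or with five library-drug doses (not always all listed) in √10 steps on top of a fixed anchor-drug dose. Cells were fixed and nuclei stained in one step after 5 days, and nuclei were counted. Relative viability is the nuclei count for treated wells divided by that for vehicle wells, reported as medians of duplicate plates.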

CAL-12T = system: CAL-12T
How it was run: as §1

HARA = system: HARA
How it was run: as §1

NCI-H2009 = system: NCI-H2009
How it was run: as §1

HCC-366 = system: HCC-366
How it was run: as §1

NCI-H1437 = system: NCI-H1437
How it was run: as §1

NCI-H460 = system: NCI-H460
How it was run: as §1

HOP-62 = system: HOP-62
How it was run: as §1

NCI-H23 = system: NCI-H23
How it was run: as §1

NCI-H2228 = system: NCI-H2228
How it was run: as §1

LCLC-103H = system: LCLC-103H
How it was run: as §1

NCI-H1755 = system: NCI-H1755
How it was run: as §1

NCI-H1395 = system: NCI-H1395
How it was run: as §1

NCI-H1792 = system: NCI-H1792
How it was run: as §1

COR-L 105 = system: COR-L 105
How it was run: as §1

NCI-H727 = system: NCI-H727
How it was run: as §1

SK-LU-1 = system: SK-LU-1
How it was run: as §1

HCC-827 = system: HCC-827
How it was run: as §1

A-427 = system: A-427
How it was run: as §1

NCI-H1915 = system: NCI-H1915
How it was run: as §1

SW 1573 = system: SW 1573
How it was run: as §1

Work on `O=c1cc(-c2cccc3c2Sc2ccccc2S3)oc(N2CCOCC2)c1` + CS(=O)(=O)N1CCN(Cc2cc3nc(-c4cccc5[nH]ncc45)nc(N4CCOCC4)c3s2)CC1 [Pictilisib] (partner 1 µM) yielded a relative viability (EMC-BAC-2; first compound 0.08 µM) of 0.535, a relative viability (EMC-BAC-2; first compound 0.253 µM) of 0.582 and a relative viability (EMC-BAC-2; first compound 0.8 µM) of 0.58. The relative viability (EMC-BAC-2; first compound 2.53 µM) was 0.548, the relative viability (EMC-BAC-2; first compound 8 µM) was 0.538 and the relative viability (CAL-12T; first compound 0.08 µM) was 0.31. It also gave a relative viability (CAL-12T; first compound 0.253 µM) of 0.482, a relative viability (CAL-12T; first compound 0.8 µM) of 0.418 and a relative viability (CAL-12T; first compound 2.53 µM) of 0.32. For the same compound, the relative viability (CAL-12T; first compound 8 µM) was 0.397, the relative viability (HARA; first compound 0.08 µM) was 0.368 and the relative viability (HARA; first compound 0.253 µM) was 0.378. The relative viability (HARA; first compound 0.8 µM) was 0.419, the relative viability (HARA; first compound 2.53 µM) was 0.384 and the relative viability (HARA; first compound 8 µM) was 0.627. For the same compound, the relative viability (NCI-H2009; first compound 0.08 µM) was 0.813, the relative viability (NCI-H2009; first compound 0.253 µM) was 0.962 and the relative viability (NCI-H2009; first compound 0.8 µM) was 0.968. It also gave a relative viability (NCI-H2009; first compound 2.53 µM) of 0.728, a relative viability (NCI-H2009; first compound 8 µM) of 0.745 and a relative viability (HCC-366; first compound 0.08 µM) of 0.138. The relative viability (HCC-366; first compound 0.253 µM) was 0.129, the relative viability (HCC-366; first compound 0.8 µM) was 0.114 and the relative viability (HCC-366; first compound 2.53 µM) was 0.122. For the same compound, the relative viability (HCC-366; first compound 8 µM) was 0.158, the relative viability (NCI-H1437; first compound 0.08 µM) was 0.464 and the relative viability (NCI-H1437; first compound 0.253 µM) was 0.534. It also gave a relative viability (NCI-H1437; first compound 0.8 µM) of 0.395, a relative viability (NCI-H1437; first compound 2.53 µM) of 0.373 and a relative viability (NCI-H1437; first compound 8 µM) of 0.37. For the same compound, the relative viability (NCI-H460; first compound 0.08 µM) was 0.289, the relative viability (NCI-H460; first compound 0.253 µM) was 0.452 and the relative viability (NCI-H460; first compound 0.8 µM) was 0.321. For the same compound, the relative viability (NCI-H460; first compound 2.53 µM) was 0.384, the relative viability (NCI-H460; first compound 8 µM) was 0.545 and the relative viability (HOP-62; first compound 0.08 µM) was 0.782. For the same compound, the relative viability (HOP-62; first compound 0.253 µM) was 1.02, the relative viability (HOP-62; first compound 0.8 µM) was 0.89 and the relative viability (HOP-62; first compound 2.53 µM) was 0.831. It also gave a relative viability (HOP-62; first compound 8 µM) of 0.779, a relative viability (NCI-H23; first compound 0.08 µM) of 0.559 and a relative viability (NCI-H23; first compound 0.253 µM) of 0.523. For the same compound, the relative viability (NCI-H23; first compound 0.8 µM) was 0.47, the relative viability (NCI-H23; first compound 2.53 µM) was 0.4 and the relative viability (NCI-H23; first compound 8 µM) was 0.457. It also gave a relative viability (NCI-H2228; first compound 0.08 µM) of 0.434, a relative viability (NCI-H2228; first compound 0.253 µM) of 0.424 and a relative viability (NCI-H2228; first compound 0.8 µM) of 0.296. The relative viability (NCI-H2228; first compound 2.53 µM) was 0.484, the relative viability (NCI-H2228; first compound 8 µM) was 0.378 and the relative viability (LCLC-103H; first compound 0.08 µM) was 0.63. The relative viability (LCLC-103H; first compound 0.253 µM) was 0.531, the relative viability (LCLC-103H; first compound 0.8 µM) was 0.505 and the relative viability (LCLC-103H; first compound 2.53 µM) was 0.489. The relative viability (LCLC-103H; first compound 8 µM) was 0.616, the relative viability (NCI-H1755; first compound 0.08 µM) was 0.369 and the relative viability (NCI-H1755; first compound 0.253 µM) was 0.489. For the same compound, the relative viability (NCI-H1755; first compound 0.8 µM) was 0.481, the relative viability (NCI-H1755; first compound 2.53 µM) was 0.431 and the relative viability (NCI-H1755; first compound 8 µM) was 0.444. It also gave a relative viability (NCI-H1395; first compound 0.08 µM) of 0.634, a relative viability (NCI-H1395; first compound 0.253 µM) of 0.602 and a relative viability (NCI-H1395; first compound 0.8 µM) of 0.534. For the same compound, the relative viability (NCI-H1395; first compound 2.53 µM) was 0.579, the relative viability (NCI-H1395; first compound 8 µM) was 1.05 and the relative viability (NCI-H1792; first compound 0.253 µM) was 0.257. The relative viability (NCI-H1792; first compound 0.8 µM) was 0.223, the relative viability (NCI-H1792; first compound 2.53 µM) was 0.277 and the relative viability (NCI-H1792; first compound 8 µM) was 0.238. For the same compound, the relative viability (COR-L 105; first compound 0.08 µM) was 0.502, the relative viability (COR-L 105; first compound 0.253 µM) was 0.441 and the relative viability (COR-L 105; first compound 0.8 µM) was 0.362. It also gave a relative viability (COR-L 105; first compound 2.53 µM) of 0.338, a relative viability (COR-L 105; first compound 8 µM) of 0.408 and a relative viability (NCI-H727; first compound 0.253 µM) of 0.442. The relative viability (NCI-H727; first compound 2.53 µM) was 0.285, the relative viability (NCI-H727; first compound 8 µM) was 0.528 and the relative viability (SK-LU-1; first compound 0.08 µM) was 0.616. It also gave a relative viability (SK-LU-1; first compound 0.253 µM) of 0.515, a relative viability (SK-LU-1; first compound 0.8 µM) of 0.594 and a relative viability (SK-LU-1; first compound 2.53 µM) of 0.541. For the same compound, the relative viability (SK-LU-1; first compound 8 µM) was 0.596, the relative viability (HCC-827; first compound 0.08 µM) was 0.945 and the relative viability (HCC-827; first compound 0.253 µM) was 1.13. It also gave a relative viability (HCC-827; first compound 0.8 µM) of 1.12, a relative viability (HCC-827; first compound 2.53 µM) of 0.743 and a relative viability (HCC-827; first compound 8 µM) of 1.1. It also gave a relative viability (A-427; first compound 0.08 µM) of 0.818, a relative viability (A-427; first compound 0.253 µM) of 0.678 and a relative viability (A-427; first compound 0.8 µM) of 0.634. The relative viability (A-427; first compound 2.53 µM) was 0.623, the relative viability (A-427; first compound 8 µM) was 0.973 and the relative viability (NCI-H1915; first compound 0.08 µM) was 0.821. The relative viability (NCI-H1915; first compound 0.253 µM) was 1.01, the relative viability (NCI-H1915; first compound 0.8 µM) was 0.904 and the relative viability (NCI-H1915; first compound 2.53 µM) was 0.828. It also gave a relative viability (NCI-H1915; first compound 8 µM) of 0.976, a relative viability (SW 1573; first compound 0.08 µM) of 0.539 and a relative viability (SW 1573; first compound 0.253 µM) of 0.554. The relative viability (SW 1573; first compound 0.8 µM) was 0.586, the relative viability (SW 1573; first compound 2.53 µM) was 0.556 and the relative viability (SW 1573; first compound 8 µM) was 0.597.
